Tests used:
[1] = target: T1, PRMT5/MEP50 (Homo sapiens, UniProt O14744); experiment: PRMT5 Biochemical Assay (PRMT5/MEP50 enzyme assay on histone H4 peptide substrate, 3H-SAM Flashplate); details: PRMT5 biochemical assay; read-out: Biochemical IC50
T1 construct: Flag-PRMT5; made in house; host or cells: Spodoptera frugiperda (SF9), baculovirus
Method in brief: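 Sf9-expressed Flag-PRMT5/6His-MEP50 preincubated with compound 30 min at 25 °C, then methylation of biotinylated H4 1-15 peptide started with ³H-SAM in 20 mM Bicine pH 7.6, 1 mM TCEP, 0.005% BSG, 0.002% Tween20.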

[2] = system: symmetric di-methyl arginine in Z-138 cells; experiment: Z-138 Methylation Assay (In Cell Western for symmetric di-methyl arginine and DNA content); type: cell-based; details: Homo sapiens, read-out: ICW EC50
From the text: Z-138 suspension cells were purchased from ATCC (American Type Culture Collection, Manassas, Va.). RPMI/Glutamax medium, penicillin-streptomycin, heat inactivated fetal bovine serum, and D-PBS were purchased from Life Technologies, Grand Island, N.Y., USA. Odyssey blocking buffer, 800CW goat anti-rabbit IgG (H+L) antibody, and Licor Odyssey infrared scanner were purchased from Licor Biosciences, Lincoln, Nebr., USA. Symmetric di-methyl arginine antibody was purchased from EMD Millipore, Billerica, Mass., USA. 16% Paraformaldehyde was purchased from Electron Microscopy Sciences, Hatfield, Pa., USA.
Z-138 suspension cells were maintained in growth medium (RPMI 1640 supplemented with 10% v/v heat inactivated fetal bovine serum and 100 units/mL penicillin-streptomycin) and cultured at 37° C. under 5% CO2.
Cell Treatment, in Cell Western (ICW) for Detection of Symmetric Di-Methyl Arginine and DNA Content.
Z-138 cells were seeded in assay medium at a concentration of 50,000 cells per mL to a 384-well cell culture plate with 50 μL per well. Compound (100 nL) from 384 well source plates was added directly to 384 well cell plate. Plates were incubated at 37° C., 5% CO2 for 96 hours. After four days of incubation, 40 μL of cells from incubated plates were added to poly-D-lysine coated 384 well culture plates (BD Biosciences 356697). Plates were incubated at room temperature for 30 minutes then incubated at 37° C., 5% CO2 for 5 hours. After the incubation, 40 μL per well of 8% paraformaldehyde in PBS (16% paraformaldahyde was diluted to 8% in PBS) was added to each plate and incubated for 30 minutes. Plates were transferred to a Biotek 405 plate washer and washed 5 times with 100 μL per well of wash buffer (1×PBS with 0.1% Triton X-100 (v/v)). Next 30 μL per well of Odyssey blocking buffer were added to each plate and incubated 1 hour at room temperature. Blocking buffer was removed and 20 μL per well of primary antibody was added (symmetric di-methyl arginine diluted 1:100 in Odyssey buffer with 0.1% Tween 20 (v/v)) and plates were incubated overnight (16 hours) at 4° C. Plates were washed 5 times with 100 μL per well of wash buffer. Next 20 μL per well of secondary antibody was added (1:200 800CW goat anti-rabbit IgG (H+L) antibody, 1:1000 DRAQ5 (Biostatus limited) in Odyssey buffer with 0.1% Tween 20 (v/v)) and incubated for 1 hour at room temperature. The plates were washed 5 times with 100 μL per well wash buffer then 1 time with 100 μL per well of water. Plates were allowed to dry at room temperature then imaged on the Licor Odyssey machine which measures integrated intensity at 700 nm and 800 nm wavelengths. Both 700 and 800 channels were scanned.
First, the ratio for each well was determined by:
Each plate included fourteen control wells of DMSO only treatment (minimum inhibition) as well as fourteen control wells for maximum inhibition treated with 3 μM of a reference compound (Background wells). The average of the ratio values for each control type was calculated and used to determine the percent inhibition for each test well in the plate. Reference compound was serially diluted three-fold in DMSO for a total of nine test concentrations, beginning at 3 μM. Percent inhibition was determined and IC50 curves were generated using triplicate wells per concentration of compound.

[3] = system: Z-138 cells; experiment: Z-138 Proliferation Assay (Cell Titer Glo, 5 days); type: cell-based; details: Homo sapiens, 120 h
From the text: Z-138 Proliferation Assay
Z-138 suspension cells were purchased from ATCC (American Type Culture Collection, Manassas, Va.). RPMI/Glutamax medium, penicillin-streptomycin, heat inactivated fetal bovine serum were purchased from Life Technologies, Grand Island, N.Y., USA. V-bottom polypropylene 384-well plates were purchased from Greiner Bio-One, Monroe, N.C., USA. Cell culture 384-well white opaque plates were purchased from Perkin Elmer, Waltham, Mass., USA. Cell-Titer Glo® was purchased from Promega Corporation, Madison, Wis., USA. SpectraMax M5 plate reader was purchased from Molecular Devices LLC, Sunnyvale, Calif., USA.
Z-138 suspension cells were maintained in growth medium (RPMI 1640 supplemented with 10% v/v heat inactivated fetal bovine serum and cultured at 37° C. under 5% CO2. Under assay conditions, cells were incubated in assay medium (RPMI 1640 supplemented with 10% v/v heat inactivated fetal bovine serum and 100 units/mL penicillin-streptomycin) at 37° C. under 5% CO2.
For the assessment of the effect of compounds on the proliferation of the Z-138 cell line, exponentially growing cells were plated in 384-well white opaque plates at a density of 10,000 cells/ml in a final volume of 50 μl of assay medium. A compound source plate was prepared by performing triplicate nine-point 3-fold serial dilutions in DMSO, beginning at 10 mM (final top concentration of compound in the assay was 20 μM and the DMSO was 0.2%). A 100 nL aliquot from the compound stock plate was added to its respective well in the cell plate. […] After addition of compounds, assay plates were incubated for 5 days at 37° C., 5% CO2, relative humidity >90%.
Cell viability was measured by quantitation of ATP present in the cell cultures, adding 35 μl of Cell Titer Glo® reagent to the cell plates. Luminescence was read in the SpectraMax M5 microplate reader. The concentration of compound inhibiting cell viability by 50% was determined using a 4-parametric fit of the normalized dose response curves.

T1 sequence (O14744 with tags, fused parts or gaps): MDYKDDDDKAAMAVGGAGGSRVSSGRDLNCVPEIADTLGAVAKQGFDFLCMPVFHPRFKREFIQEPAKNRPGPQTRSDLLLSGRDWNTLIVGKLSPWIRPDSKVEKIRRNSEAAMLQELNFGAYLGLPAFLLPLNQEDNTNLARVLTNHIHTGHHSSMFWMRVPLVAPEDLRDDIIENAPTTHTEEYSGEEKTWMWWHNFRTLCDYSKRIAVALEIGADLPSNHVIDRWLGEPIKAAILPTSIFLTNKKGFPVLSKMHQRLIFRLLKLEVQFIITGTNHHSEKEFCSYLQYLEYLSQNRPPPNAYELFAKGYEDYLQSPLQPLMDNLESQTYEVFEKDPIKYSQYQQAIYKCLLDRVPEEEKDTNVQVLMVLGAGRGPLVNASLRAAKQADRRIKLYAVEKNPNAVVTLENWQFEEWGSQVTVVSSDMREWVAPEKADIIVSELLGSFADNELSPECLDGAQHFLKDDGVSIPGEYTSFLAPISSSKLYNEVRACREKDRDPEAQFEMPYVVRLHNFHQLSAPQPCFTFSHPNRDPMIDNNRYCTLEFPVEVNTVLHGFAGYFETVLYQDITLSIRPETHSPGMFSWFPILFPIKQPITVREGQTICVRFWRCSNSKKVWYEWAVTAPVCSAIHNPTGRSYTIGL
T1 sequence (Q9BQA1 with tags, fused parts or gaps partner limits assumed): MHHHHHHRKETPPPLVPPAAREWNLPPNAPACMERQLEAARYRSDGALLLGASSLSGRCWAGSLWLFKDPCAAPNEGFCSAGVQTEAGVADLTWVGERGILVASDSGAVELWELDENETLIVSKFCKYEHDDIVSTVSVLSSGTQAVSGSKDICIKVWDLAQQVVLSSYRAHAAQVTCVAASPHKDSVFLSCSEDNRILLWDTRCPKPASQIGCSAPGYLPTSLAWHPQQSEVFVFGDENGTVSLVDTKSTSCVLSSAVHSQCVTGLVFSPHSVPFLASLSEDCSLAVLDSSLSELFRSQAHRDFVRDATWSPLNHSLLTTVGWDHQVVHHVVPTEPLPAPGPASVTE

SMILES | IC50 [1] [nM] | EC50 [2] [nM] | EC50 [3] [µM]
CC(=O)c1ccc(NC(=O)CC2NC(N3CCN(Cc4ccccc4)CC3)=NC2=O)cc1 (stereo not drawn) [Compound 3-14] | 1000 to 10000 | > 20000 | > 20
O=C(CC1NC(N2CCN(Cc3ccccc3)CC2)=NC1=O)Nc1ccc(Cl)cc1 (stereo not drawn) [Compound 22-14] | 101 to 1000 | > 20000 | > 20
CCOc1c(C)cc(S(=O)(=O)NCC2CCN(Cc3ccc4ccccc4c3)CC2)cc1C [Compound 10-3] | 101 to 1000 |  | > 20
CN(C)c1cccc2c(S(=O)(=O)NCCC(N)c3ccccc3)cccc12 (stereo not drawn) [Compound 3-7] | < 100 | 101 to 1000 | 10 to 50
O=C(NC[C@H](O)CN1Cc2ccccc2C1)c1cc(NC2COC2)ncn1 [Compound 3-11] | 101 to 1000 | 101 to 1000 | 10 to 50
CCOc1c(C)cc(S(=O)(=O)NCC2CCN(Cc3c(SC(C)C)nc4sccn34)CC2)cc1C [Compound 9-3] | < 100 |  | > 20
Cc1cccc(Cn2ccnc2CN)c1 [Compound 1-13] | 1000 to 10000 | > 1000 | > 5
CN(C)c1cccc2c(S(=O)(=O)NC3CC(=O)N(c4ccccc4)C3)cccc12 (stereo not drawn) [Compound 1-4] | 101 to 1000 | 101 to 1000 | 1 to 10
CCOc1c(C)cc(S(=O)(=O)NCC2CCN(Cc3ccc4ncccc4c3)CC2)cc1C [Compound 6-3] | 101 to 1000 |  | > 20
O=C(CC1NC(N2CCc3ccccc3C2)=NC1=O)Nc1ccc(Oc2ccccc2)cc1 (stereo not drawn) [Compound 12-14] | 101 to 1000 | > 20000 | > 20
O=C(NC[C@H](O)CN1Cc2ccccc2C1)c1ccnc(NC2CCNC2)c1 (stereo partly drawn) [Compound 1-11] | 101 to 1000 |  | > 20
O=C(NCC(O)CN1CCc2ccccc2C1)c1ccc(OC2CCOC2)cc1 (stereo not drawn) [1-10] | < 100 | < 100 | 1 to 10
CN(C)c1cccc2c(S(=O)(=O)NC3CN(Cc4ccccc4)C3)cccc12 [Compound 3-5, N-(1-benzylazetidin-3-yl)-5-(dimethylamino)naphthalene-1-sulfonamide] | < 100 | 101 to 1000 | 10 to 50
CS(=O)(=O)N1CCC(Nc2cncc(C(=O)NC[C@H](O)CN3Cc4ccccc4C3)c2)CC1 [Compound 2-11] | < 100 | 101 to 1000 | 10 to 50
CCOc1c(C)cc(S(=O)(=O)NCC2CCN(Cc3cc4cc(OC)ccc4nc3Cl)CC2)cc1C [Compound 15-3] | 101 to 1000 | > 20000 | > 20
CCOc1c(C)cc(S(=O)(=O)NCC2CCN(Cc3ccccc3Br)CC2)cc1C [Compound 4-3] | 101 to 1000 |  | > 20
CN(C)c1cccc2c(S(=O)(=O)NC[C@H](N)Cc3ccccc3)cccc12 [Compound 4-7] | 101 to 1000 | 101 to 1000 | 

SMILES | IC50 [1] [nM] | EC50 [2] [nM] | EC50 [3] [µM]
O=S(=O)(NCC1CCN(Cc2ccco2)CC1)c1cccc2c(Cl)cccc12 [Compound 12-3, 5-chloro-N-((1-(furan-2-ylmethyl)piperidin-4-yl)methyl)naphthalene-1-sulfonamide] | 101 to 1000 | 10000 to 50000 | 
O=S(=O)(NCC1CCN(Cc2ccco2)CC1)c1ccc(Oc2ccccc2)cc1 [Compound 8-3] | 101 to 1000 |  | > 20
CN(C)c1cccc2c(S(=O)(=O)NC3CC(=O)N(c4cccc(F)c4)C3)cccc12 (stereo not drawn) [Compound 6-4] | 101 to 1000 | 1000 to 10000 | 
CC(=O)N1CCC(Nc2cc(C(=O)NC[C@H](O)CNCc3ccccc3)ccn2)CC1 [Compound 1-8, (R)-2-((1-acetylpiperidin-4-yl)amino)-N-(3-(benzylamino)-2-hydroxypropyl)isonicotinamide] | 101 to 1000 |  | > 5
CCOc1c(C)cc(S(=O)(=O)NCC2CCN(Cc3ccccc3-c3ccccc3)CC2)cc1C [Compound 7-3] | 101 to 1000 |  | > 20
CCOc1c(C)cc(S(=O)(=O)NCC2CCN(Cc3c(-c4ccccc4)[nH]c4ccccc34)CC2)cc1C [Compound 11-3] | 101 to 1000 |  | > 20
CN(C)c1cccc2c(S(=O)(=O)NC3CCN(Cc4ccco4)CC3)cccc12 [Compound 13-3] | 101 to 1000 |  | > 20
CCOc1c(C)cc(S(=O)(=O)NCC2CCN(Cc3cccc4c3OCO4)CC2)cc1C [Compound 5-3] | 101 to 1000 |  | > 20
NCCNC[C@H]1O[C@@H](n2cnc3c(N)ncnc32)[C@H](O)[C@@H]1O [Compound 29-1] | 101 to 1000 |  | 
CN(CCN1CCC(Oc2ccccn2)CC1)C[C@H]1OC(n2cnc3c(N)ncnc32)[C@H](O)[C@@H]1O (stereo partly drawn) [Compound 41-1] | 101 to 1000 |  | 
Cc1ccc(C(=O)CC2NC(N3CCN(c4cccnc4)CC3)=NC2=O)cc1 (stereo not drawn) [Compound 43-14] | 1000 to 10000 |  | 
Cc1cccc(CN(C)CCN(C)C[C@H]2O[C@@H](n3cnc4c(N)ncnc43)[C@H](O)[C@@H]2O)c1 [Compound 4-1] | 101 to 1000 |  | 
COc1ccccc1C(=O)CC1NC(N2CCc3ccccc3C2)=NC1=O (stereo not drawn) [Compound 5-6] | < 100 |  | 
CN(CCCN)C[C@H]1O[C@@H](n2cnc3c(N)ncnc32)[C@H](O)[C@@H]1O [Compound 97-1] | < 100 |  | 
COc1cccc(C(=O)CC2NC(N3CCN(c4ccccc4)CC3)=NC2=O)c1 (stereo not drawn) [Compound 39-14] | 101 to 1000 |  | 
COc1ccccc1C(=O)CC1NC(N2CC=C(c3ccccc3)CC2)=NC1=O (stereo not drawn) [Compound 6-6] | 101 to 1000 |  | 

Reference: patent publication US20170198006A1, “PRMT5 INHIBITORS AND USES THEREOF” (Epizyme, Inc., priority 2014, published 2017)
